Measured values published in patent US6143763A, “Carbostyril derivatives” (D. Western Therapeutics Institiute, priority 1995, dated 2000).
pIC50: −log10 of the molar value.

Experiments:
[1] = system: platelet aggregation (ADP); assay: Platelet aggregation inhibitory activity, ADP-induced (Born's turbidimetry, rabbit PRP); type: cell-based, male rabbit (NZW); settings: Oryctolagus cuniculus, ADP 7.5 μM final, 37° C.
Description: (§1) Pharmacological Experiment 1 Platelet aggregation inhibitory activity
(§2) (1) Preparation of platelet rich plasma (PRP):
(§3) The blood was collected from the carotid of a male rabbit without anesthesia (NZW species, body weight; 2-3 kg) with mixing thereof with 1/10 volume of citric acid. The blood thus obtained was separated and put into plastic test tubes (each about 7 ml), and centrifuged at 900 rpm for 15 minutes at room temperature to give a turbid supernatant as a platelet rich plasma (PRP). The residue from which PRP is separated was centrifuged at 3000 rpm for 10 minutes, and the supernatant was collected as a platelet poor plasma (PPP). The PRP was diluted with PPP so that the concentration thereof was adjusted to […], and used in the platelet aggregation inhibitory activity test.
(§4) (2) Method for platelet aggregation inhibitory activity test:
(§5) The platelet aggregation was tested according to Born's turbidimetry. That is, a test compound was dissolved in dimethylformamide, and the test compound solution (1 μl) thus obtained was put into a cuvette, and thereto was further added PRP (200 μl). Immediately thereafter, the cuvette was set into an apparatus for determining platelet aggregation activity, PAM-8T (manufactured by Mevanix Inc.), and the mixture was incubated at 37° C. Precisely three minutes thereafter, a solution of adenosine diphosphate (ADP, PA test ADP [MCM], purchased by MC Medical Ltd.) in physiological saline solution or a collagen solution (Collagenreagent Horm, purchased by MC Medical Ltd.) (20 μl) was added thereto. The final concentration of the ADP solution or the collagen solution was 7.5 μM or 20 μg/ml, respectively.
(§6) The maximum aggregation rate and the aggregation inhibitory rate were calculated by the following equations. [formula]
(§7) IC50, which is a concentration of the test compound being required to inhibit the platelet aggregation reaction by 50%, was determined from the aggregation inhibitory rates at two different concentrations of a test compound.

[2] = system: death induced by pulmonary infarction in mice; assay: Antithrombotic activity: inhibition of death by collagen-induced pulmonary infarction in mice; type: in vivo, male ICR mice; settings: Mus musculus, 1 h; 30 mg/kg oral, 10 minutes before i.v. collagen; lethality in an hour; read-out: Pulmonary infarction inhibitory activity
From the text: Pharmacological Experiment 2 Antithrombotic activity
Antithrombotic activity of the test compounds was estimated by an inhibitory activity of the test compound by oral administration against death induced by pulmonary infarction in mice which was introduced by intravenous administration of collagen (pulmonary infarction inhibitory activity).
Male ICR mice (5-week old, body weight; about 25 g) was fasted overnight, and separated into groups (15 mice per each group) and numbered. A test compound solution, which was prepared by suspending a test compound in 1% hydroxypropylmethyl cellulose 2910 TC-5 (HPMC, manufactured by Shin-etsu Chemical Co., Ltd.), was orally administered to the mice, and 10 minutes thereafter, a collagen solution (the method for preparation thereof and a dose thereof are explained hereafter) was injected to the mice at the tail vein at the constant rate. The lethality of the mice was determined by the number of mice which were died in an hour after the administration of collagen solution. The antithrombotic activity of the test compound was estimated by the inhibitory rate (%) of the lethality of the mice. The collagen solution was prepared by dissolving collagen (Type III, manufactured by Sigma Chemical Ltd.) in 0.05 M acetic acid solution containing 2 mM calcium chloride and 5% glucose at 4° C. so that the final concentration of collagen was adjusted to 2.5 mg/ml, and then the pH value thereof was adjusted to pH 7.4 with sodium hydroxide the day before the experiment. The collagen solution was incubated with stirring at 37° C. for two hours, and then further stirred at room temperature overnight. Just before the experiment, the pH value of the collagen solution was adjusted again to pH 7.4. The amount of the collagen solution which was injected at the tail vein was previously determined so that the lethality by pulmonary infarction induced thereby became about 75%.

[3] = system: platelet aggregation (collagen); assay: Platelet aggregation inhibitory activity, collagen-induced (Born's turbidimetry, rabbit PRP); type: cell-based, male rabbit (NZW); settings: Oryctolagus cuniculus, collagen 20 μg/ml final, 37° C.
Description: as §1, §2, §3, §4, §5, §6, §7

[4] = system: left common carotid artery injured by balloon; assay: Intima thickening inhibitory activity after balloon injury (3H-thymidine in carotid artery); type: in vivo, male SD rats; settings: Rattus norvegicus, oral
Description: Pharmacological Experiment 3 Intima thickening inhibitory activity
Male SD rats (6-week old) were separated into groups (8 rats per each group) and numbered. A test compound solution, which was prepared by suspending a test compound in 1% hydroxypropylmethyl cellulose 2910 TC-5 (HPMC, manufactured by Shin-etsu Chemical Co., Ltd.) was orally administered to the rats. In the control group, 1% HPMC solution was orally administered instead of the test compound solution. One or two hours thereafter, two french balloon catheters (manufactured by Baxter Travenol Inc.) were inserted into the left common carotid artery of the rats, and the artery was injured by abrading five times with a balloon. The day of balloon abrasion was considered as Day 0. On the following day (Day 1), a test compound was orally administered to the rats two times a day (in the morning and in the evening). On Day 2, 1.48 MBq/ml of ^3 H-thymidine (dose: 5 ml/kg, manufactured by NEN Research Products, Ltd.) was injected at the tail vein of the rats about one hour after the administration of the test compound so that the time after the balloon injury was fixed to the same in each rat. Precisely 45 minutes after the injection of ^3 H-thymidine at the tail veil, the common carotid artery of the rats was taken out.
In the test compound-treated group, only the left common carotid artery which was injured by balloon was taken out, and in the control group, both the left and right common carotid arteries were taken out. The common carotid artery thus obtained was cut to pieces of exact 1 cm long, and the unnecessary portions such as the outer membrane or the nerves were completely removed. The common carotid artery was put into a glass vial, and thereto was added a 0.5 N sodium hydroxide (0.5 ml), and the mixture was incubated at 37° C. overnight to be solubilized. The mixture was neutralized with a 5 N hydrochloric acid (0.05 ml), and thereto was further added an aqueous hydrogen peroxide solution (0.1 ml). Aquasol II (10 ml, manufactured by Du Pont Co.) was added thereto, and the mixture was well stirred and then allowed to stand for 30 minutes. The radioactivity of tritium in the mixture was counted by liquid scintillation counter. The intima thickening inhibitory activity of the test compound was calculated by the following equation. [formula] L (c): The amount of tritium in the left common carotid artery in the control group (dpm)
R (c): The amount of tritium in the right common carotid artery in the control group (dpm)
L: The amount of tritium in the left common carotid artery in the test compound-treated group (dpm)

[5] = molecular target: T1, cGMP-inhibited cAMP phosphodiesterase (PDE3) (Homo sapiens, UniProt Q14432); assay: cGMP-inhibited cAMP phosphodiesterase (PDE3) inhibitory activity; type: biochemical; settings: 0.4 μM [8-3H]cAMP, pH 8.0, 30° C., 15 minutes; recombinant enzyme from Sf9; read-out: PDE inhibitory activity IC50
T1 construct: made in house; host or cells: insect cell Sf9, baculovirus expression system
T1 sequence (Q14432 whole entry): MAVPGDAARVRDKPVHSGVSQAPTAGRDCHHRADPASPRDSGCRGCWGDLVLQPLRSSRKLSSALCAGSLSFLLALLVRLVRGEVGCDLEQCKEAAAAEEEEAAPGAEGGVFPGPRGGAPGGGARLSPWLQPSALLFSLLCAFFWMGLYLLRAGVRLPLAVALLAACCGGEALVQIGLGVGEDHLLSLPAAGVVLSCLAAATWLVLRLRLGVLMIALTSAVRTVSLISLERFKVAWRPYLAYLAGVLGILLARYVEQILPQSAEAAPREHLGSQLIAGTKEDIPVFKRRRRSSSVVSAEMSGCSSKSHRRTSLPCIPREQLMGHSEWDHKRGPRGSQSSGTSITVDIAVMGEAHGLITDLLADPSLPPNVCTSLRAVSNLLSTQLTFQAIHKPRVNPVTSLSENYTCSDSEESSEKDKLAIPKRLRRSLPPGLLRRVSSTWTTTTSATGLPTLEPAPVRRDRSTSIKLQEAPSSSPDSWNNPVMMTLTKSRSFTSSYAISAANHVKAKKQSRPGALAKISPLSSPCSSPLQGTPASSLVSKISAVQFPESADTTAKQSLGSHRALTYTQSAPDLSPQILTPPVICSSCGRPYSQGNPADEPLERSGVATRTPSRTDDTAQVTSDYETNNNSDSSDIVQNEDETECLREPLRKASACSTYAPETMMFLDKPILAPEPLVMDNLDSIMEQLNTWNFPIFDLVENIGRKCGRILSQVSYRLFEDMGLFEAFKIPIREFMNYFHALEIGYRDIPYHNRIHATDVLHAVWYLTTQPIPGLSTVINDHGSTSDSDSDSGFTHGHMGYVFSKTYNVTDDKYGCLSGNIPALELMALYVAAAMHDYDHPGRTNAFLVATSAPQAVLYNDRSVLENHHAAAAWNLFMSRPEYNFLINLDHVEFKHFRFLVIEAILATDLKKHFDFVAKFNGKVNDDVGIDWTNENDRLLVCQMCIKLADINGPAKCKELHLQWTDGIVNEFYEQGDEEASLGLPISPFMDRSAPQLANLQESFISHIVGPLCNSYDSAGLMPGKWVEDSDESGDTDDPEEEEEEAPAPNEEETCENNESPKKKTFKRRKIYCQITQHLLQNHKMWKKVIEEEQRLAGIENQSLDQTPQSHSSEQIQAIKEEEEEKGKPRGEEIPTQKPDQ

Row | SMILES | pIC50 [1] | inhibition in vivo at 30 mg/kg [2] [%] | pIC50 [3] | inhibition in vivo at 10 mg/kg [4] [%] | inhibition in vivo at 30 mg/kg [4] [%] | pIC50 [5]
1 | O=C(NCCCOc1ccc2[nH]c(=O)ccc2c1)N(C1CC1)[C@@H]1CCCC[C@H]1O (relative stereo) [Ex. 6, 6-{3-[3-(trans-2-hydroxycyclohexyl)-3-cyclopropylureido]propoxy}carbostyril] | 5.74 | 100 | 5.72 | 31.4 | – | –
2 | CC(=O)O[C@@H]1CCCC[C@H]1N(C(=O)NCCCOc1ccc2[nH]c(=O)ccc2c1)C1CC1 (relative stereo) [Ex. 7, 6-{3-[3-(trans-2-acetyloxycyclohexyl)-3-cyclopropylureide]propoxy}carbostyril] | 4.74 | 67 | 5.68 | – | 15.2 | –
3 | O=C(NCCCOc1ccc2[nH]c(=O)ccc2c1)N(C1CCCCCC1)[C@@H]1CCCC[C@H]1O (relative stereo) [Ex. 18] | 6.92 | 69 | 7.52 | – | 19 | –
4 | O=C(NCCCOc1ccc2[nH]c(=O)ccc2c1)N(C1CCCCCCC1)[C@@H]1CCCC[C@H]1O (relative stereo) [Ex. 24] | 7.10 | 100 | 7.52 | – | – | 9.19
5 | O=C1CCc2cc(OCCCNC(=O)N(C3CC3)[C@@H]3CCCC[C@H]3O)cc(F)c2N1 (relative stereo) [Ex. 25] | 5.33 | 100 | 5.41 | – | – | –
6 | O=C(NCCCOc1cc(F)c2[nH]c(=O)ccc2c1)N(C1CC1)[C@@H]1CCCC[C@H]1O (relative stereo) [Ex. 26] | 6.35 | 85 | 5.52 | – | 16 | 7.13
7 | COc1cc(OCCCNC(=O)N(C2CC2)[C@@H]2CCCC[C@H]2O)cc2ccc(=O)[nH]c12 (relative stereo) [Ex. 27] | 4.50 | 80 | 4.50 | – | – | 5.66
8 | O=C(NCCOc1ccc2[nH]c(=O)ccc2c1)N(C1CC1)[C@@H]1CCCC[C@H]1O (relative stereo) [Ex. 30] | 5.44 | 100 | 5.53 | – | – | –
9 | O=C(NCCCOc1ccc2nc(O)ccc2c1)N(C1CC1)[C@H]1CCCC[C@@H]1O [Ex. 8, (S,S)-(+)-6-{3-[3-(2-Hydroxycyclohexyl)-3-cyclopropylureido]propoxy}-carbostyril] | 5.68 | 100 | 5.70 | – | 13.3 | 6.95
10 | O=C(NCCCOc1ccc2[nH]c(=O)ccc2c1)N(C1CC1)[C@@H]1CCCC[C@H]1O [Ex. 9, (R,R)-(-)-6-{3-[3-(trans-2-hydroxycyclohexyl)-3-cyclopropylureido]propoxy}carbostyril] | 5.72 | 100 | 5.70 | 26.8 | – | 7.03
11 | CCC(CN(C(=O)NCCCOc1ccc2[nH]c(=O)ccc2c1)C1CCCCC1)OC(C)=O (stereo not drawn) [Ex. 11] | 6.22 | 80 | 5.68 | – | 33 | –
12 | CCC(O)CN(C(=O)N(C)CCCOc1ccc2[nH]c(=O)ccc2c1)C1CCCCC1 (stereo not drawn) [Ex. 13, 6-{3-[1-methyl-3-cyclohexyl-3-(2-hydroxybutyl)ureido]propoxy}carbostyril] | 5.68 | 58 | 5.70 | – | 16.6 | –
13 | CCC(CN(C(=O)N(C)CCCOc1ccc2[nH]c(=O)ccc2c1)C1CCCCC1)OC(C)=O (stereo not drawn) [Ex. 14, 6-{3-[1-methyl-3-cyclohexyl-3-(2-acetyloxybutyl)ureido]propoxy}carbostyril] | 5.82 | 66 | 5.66 | – | 15.7 | –
14 | CCN(CCCOc1ccc2[nH]c(=O)ccc2c1)C(=O)N(C)C1CCCCC1 [Ex. 15] | 4.82 | 86 | 4.79 | – | 11.9 | –
15 | C=CCN(CCCOc1ccc2[nH]c(=O)ccc2c1)C(=O)N(C)C1CCCCC1 [Ex. 16, 6-[3-(3-Cyclohexyl-3-methyl-1-allylureido)propoxy]carbostyril] | 5.34 | 77 | 4.70 | – | 33.3 | –
16 | CCOC(CC)CN(C(=O)NCCCOc1ccc2[nH]c(=O)ccc2c1)C1CCCCC1 (stereo not drawn) [Ex. 19] | 6.74 | 84 | 6.23 | – | 23.4 | –
17 | CCC(CN(C(=O)NCCCOc1ccc2[nH]c(=O)ccc2c1)C1CCCCC1)OCc1ccccc1 (stereo not drawn) [Ex. 20] | 6.66 | 66 | 6.54 | – | – | –
18 | CC(O)CN(CCCOc1ccc2[nH]c(=O)ccc2c1)C(=O)N(C)C1CCCCC1 (stereo not drawn) [Ex. 21] | 5.68 | 59 | 5.49 | – | – | –
19 | CN(C(=O)N(CCCO)CCCOc1ccc2[nH]c(=O)ccc2c1)C1CCCCC1 [Ex. 22] | 5.88 | 69 | 5.55 | – | – | –
20 | CCCN(CCCOc1ccc2[nH]c(=O)ccc2c1)C(=O)N(C)C1CCCCC1 [Ex. 23, 6-[3-(3-cyclohexyl-3-methyl-1-propylureido)propoxy]carbostyril] | 4.87 | 90 | 5.60 | – | – | –
21 | O=C(NCCCOc1ccc2[nH]c(=O)ccc2c1)NN(C1CCCCC1)C1CC1 [Ex. 29] | 8.00 | 91 | 7.52 | – | 29.3 | –
22 | O=C(NCCCCOc1ccc2[nH]c(=O)ccc2c1)N(C1CC1)[C@@H]1CCCC[C@H]1O [Ex. 31] | 4.80 | 48 | 5.59 | – | – | –
